Measured values taken from patent publication US20060281670A1, “Compositions and methods for modulating angiogenesis” (Wisconsin Alumni Research Foundation (WARF), priority 2005, published 2006).

What was measured:
[1] = tested on: Yolk sac endothelial cells (YSECs); conditions: for rescue of tube formation in IBMX+NK-B treated cells: 100 ng/ml mouse VEGF164 or 30 ng/ml mouse bFGF
Protocol: (§1) Vascular network assembly was assessed by measuring the formation of capillary-like structures by endothelial cells on Matrigel (BD Biosciences, San Jose, Calif.). Matrigel was diluted 1:1 with supplement-free M200 medium, poured in 24-well plates, and allowed to solidify at 37° C. Subconfluent endothelial cells were harvested and preincubated under different experimental conditions (YSECs, 1 h; HUVECs, HAECs, and human microvascular endothelial cells (HMVECs), 2 h in supplement-free M200 medium in microfuge tubes. An equal volume of supplemented medium containing the indicated reagents was added. Cells were plated on Matrigel (1.5×10^5 cells/well) and incubated at 37° C. Vascular network assembly was measured as a function of time, and digital pictures were captured.

[2] = tested on: chorioallantoic membrane (CAM); assay: Chick chorioallantoic membrane assay; type: in vivo, chicken; conditions: L733060 5 μM, SB222200 2 μM, alone or combined; day 7 embryos, 48 h
Protocol: Fertilized chicken eggs were incubated at 39° C. with 90% humidity. On embryonic day 7, a small hole was drilled at the end of the egg that contains the air sac to lower the embryo. A second hole was made above the chorioallantoic membrane (CAM), and 100 μl of a 1.5% solution of methylcellulose (Stem Cell Technologies, Vancouver, BC) containing either FGF2 (500 ng) or VEGF (200 ng) and vehicle, IBMX (100 μg), NK-B (40 μg)/IBMX, or mutant NK-B (40 μg)/IBMX were applied to the CAM. A solution of penicillin/streptomycin was added, and the eggs were sealed with transparent tape. Vasculature was analyzed after 48 h, and digital images were captured at 40× magnification.

[3] = tested on: HUVECs; assay: Vascular network assembly assay on Matrigel; type: cell-based, human
Protocol: as §1

[4] = tested on: human aortic endothelial cells (HAECs); assay: Vascular network assembly assay on Matrigel; type: cell-based; conditions: NK-B, U46619 (2 μM) or both, 2 h, 16 h on Matrigel
Protocol: as §1

[5] = tested on: YSECs; assay: cAMP assay; type: cell-based, mouse; conditions: supplement-free M200 medium
Protocol: Cells were cultured in 6-well plates (2×10^5 cells/well), washed with supplement-free M200 medium and treated with indicated reagents at 37° C. The reactions were terminated by aspiration of the medium. Cells were washed with PBS and lysed in 500 μl of 0.1 N HCl containing 0.5% Triton X-100. cAMP was assayed in cell lysates (100 μl) using a direct cAMP enzyme-linked immunosorbent assay (Assay Designs, Inc., Ann Arbor, Mich.).

[6] = tested on: YSECs; assay: Calcium imaging (Ca+2 oscillations); type: cell-based, mouse; conditions: YSECs on Matrigel, supplemented medium
Protocol: Cells were incubated for ˜30 min in 4 μM fluo-4/AM (Molecular Probes, Carlsbad, Calif.) in supplement-free M200 medium at 37° C., trypsinized, plated on Matrigel with indicated reagents, and allowed to adhere for 10 min. Time-lapse video microscopy with an Olympus AX70 laser scanning confocal microscope was used to measure intracellular Ca^+2 as described previously (Robles et al., 2003). An argon laser at 488 nm was used to excite Fluo-4, and the emitted light was detected at wavelengths>510 nm. Images were acquired at 15 s intervals and analyzed using Image J (Image Processing and Analysis in JAVA, Nat'l Inst. Health). When indicated, the fluorescence intensity in the region of interest (F) was normalized by dividing the Ca+2 signal by the fluorescence intensity of the resting cell at time 0 (F0).

[7] = tested on: calreticulin in YSECs; assay: Calreticulin 2D gel electrophoresis and Western blot; type: cell-based, mouse; conditions: 2 μM ionomycin, 1 h, supplement-free M200 medium
Protocol: […] Cells were processed and proteins analyzed as described above in Example 2.
Cells were harvested, washed twice with ice-cold PBS, and lysed in lysis buffer containing 10 mM Tris (pH 7.4), 0.3% SDS, 100 μg/mL Ribonuclease A (Sigma), 200 μg/mL DNase I (Sigma), 20 μg/mL leupeptin (Sigma), 6 μg/mL E-64 (Sigma), 1 mM EDTA (Calbiochem), and 100 μg/mL benzamidine (Sigma). Cells were incubated on ice for 30 min, an equal volume of loading buffer containing 60 mM Tris (pH 6.8), 5% SDS, 10% glycerol was added, and samples were boiled for 5 min. 2D gel electrophoresis was conducted using pH 3.5-10 ampholines, and proteins were detected by Coomassie Blue staining. […]
The following antibodies were used for Western blots: Anti-phospho-FAK (Tyr-397) (Biosource, 44-624G); anti-FAK, anti-phospho-Akt (Ser 473), anti-Akt, anti-phospho-p44/42 MAP kinase (Thr 202/Tyr 204), anti-p44/42 MAP kinase antibodies (Cell Signaling Technology); anti-calreticulin (Upstate, 06-661); anti-α-tubulin (Calbiochem); anti Flt-1 (Santa Cruz Biotech, C-17); anti-Flk-1 (Cell Signaling Technologies, 2479). […] Extracts were resolved on SDS polyacrylamide gels, transferred to Immobilon P membranes (Millipore, Billerica, Mass.), and analyzed by Western blotting. Proteins were detected by chemiluminescence using ECL-Plus (Amersham Biosciences Piscataway, N.J.).

[8] = tested on: Flt-1 and Flk-1 (VEGF receptors) in YSECs; assay: Gene expression analysis by real-time RT-PCR; type: cell-based, mouse; conditions: for rescue of Flt-1 and Flk-1 expression and cell signaling: NK-B/IBMX-treated YSECs, growth factor 100 ng/ml
Protocol: Real-time RT-PCR was conducted Total RNA was purified with Trizol (Invitrogen). cDNA was prepared by annealing RNA (1 μg) with 250 ng of a 1:5 mixture of random and oligo(dT) primers (Promega) at 68° C. for 10 min, followed by incubation with Moloney Murine Leukemia Virus reverse transcriptase (Invitrogen) with 10 mM dithiothreitol, RNasin (Promega), and 0.5 mM dNTPs at 42° C. for 1 h. Reactions were diluted to a final volume of 100 μl and subjected to heat-inactivation at 98° C. for 10 min. Reactions (25 μl) contained 2.5 μl of cDNA, 12.5 μl of SYBR Green Master Mix (Applied Biosystems), and appropriate primers. Product accumulation was monitored by SYBR Green fluorescence. Control reactions lacking RT yielded little or no signals. The relative expression levels were determined from a standard curve of serial dilutions of cDNA samples from untreated control cells, and measurements were conducted under conditions of linearity.
Real time RT-PCR primers were designed using PRIMER EXPRESS 1.0 (PE Applied Biosystems) to amplify 50-150 bp amplicons and were based on GenBank Ensembl sequences.

CC(C)Cn1c(=O)n(C)c(=O)c2[nH]cnc21 [IBMX, 3-Isobutyl-1-methylxanthine] was tested, and the “vascular network assembly (capillary like tube formation)” value ([1]; 250 μM IBMX, 10 μM forskolin, 100 μM NK-B, 20 h, 3 experiments) was “has little effect on vascular network assembly”.

In the case of Cl.FC(F)(F)c1cc(CO[C@H]2CCCN[C@H]2c2ccccc2)cc(C(F)(F)F)c1 [L733060], the “microvessel density of CAM” value [2] is reported as “much higher”.

With CC[C@H](NC(=O)c1c(C)c(-c2ccccc2)nc2ccccc12)c1ccccc1 [SB222200, (S)-3 methyl-2-phenyl-N-(1-phenylpropyl)-4-quinilinecarboxamide] the “microvessel density of CAM” value [2] was “much higher”.

For CCCCC[C@H](O)/C=C/[C@@H]1[C@@H](C/C=C\CCCC(=O)O)[C@H]2CO[C@@H]1C2 [U46619], the vascular network assembly ([3]; NK-B, U46619 (2 μM) or both, 2 h, 16 h on Matrigel) was “had little effect”, the vascular network assembly [4] was “had little effect” and the cAMP [5] was “decrease the amount of cAMP”. The “Ca+2 oscillations” value [6] was “decreasing the amount of Ca^2+ oscillations” and the vascular network assembly ([1]; NK-B, U46619 (2 μM) or both, 1 h, 16 h on Matrigel) was “had little effect”.

In the case of C[C@H](CCC(=O)O)C[C@H](C)C[C@H](C)C(=O)/C=C(\O)[C@H](C)C[C@H](C)C/C=C/[C@@H](C)[C@@H](O)[C@@H](C)[C@@H](O)C[C@@H]1CC[C@@](C)([C@H]2CC[C@@](C)([C@@H](C)O)O2)O1 [ionomycin], the calreticulin/alpha-tubulin ratio increase [7] is reported as roughly 2 fold.

For “FGF2: fibroblast growth factor-2 (bovine FGF2 from R & D systems; also called mouse FGF2/bFGF)”, the “rescue of Flt-1 and Flk-1 expression and cell signaling” value [8] was “but not FGF2, rescues Flt-1 and Flk-1 expression and cell signaling”, the FGFR1 transcription ([8]; YSECs, 100 ng/ml FGF2 with or without NK-B) was “increased” and the “rescue of tube formation in IBMX+NK-B treated cells” value [1] was “but not bFGF Rescues the NK-B Effect”.

With VEGF the “rescue of Flt-1 and Flk-1 expression and cell signaling” value [8] was “rescues Flt-1 and Flk-1 expression and cell signaling” and the “rescue of tube formation in IBMX+NK-B treated cells” value [1] was “can form capillary-like tubes but in a slower kinetics”.

B1: calreticulin: E. coli overexpressed and purified recombinant calreticulin, anti-angiogenic protein (protein, UniProt P27797 18-417, looked up)
Calreticulin: EPAVYFKEQFLDGDGWTSRWIESKHKSDFGKFVLSSGKFYGDEEKDKGLQTSQDARFYALSASFEPFSNKGQTLVVQFTVKHEQNIDCGGGYVKLFPNSLDQTDMHGDSEYNIMFGPDICGPGTKKVHVIFNYKGKNVLINKDIRCKDDEFTHLYTLIVRPDNTYEVKIDNSQVESGSLEDDWDFLPPKKIKDPDASKPEDWDERAKIDDPTDSKPEDWDKPEHIPDPDAKKPEDWDEEMDGEWEPPVIQNPEYKGEWKPRQIDNPDYKGTWIHPEIDNPEYSPDPSIYAYDNFGVLGLDLWQVKSGTIFDNFLITNDEAYAEEFGNETWGVTKAAEKQMKDKQDEEQRLKEEEEDKKRKEEEEAEDKEDDEDKDEDEEDEEDKEEDEEEDVPGQAKDEL
For B1, the vascular network assembly ([3]; calreticulin 13 μg/ml, vasostatin 5 μg/ml, 1 h) was “inhibit YSEC and HUVEC vascular network assembly” and the “Flt-1 and Flk-1 transcription” value ([8]; YSECs, forskolin (10 μM)/IBMX, calreticulin (13 μg/ml), vasostatin (5 μg/ml), 1, 2 or 5 h on Matrigel) was “failed to affect Flt-1 and Flk-1 transcription”.
